Laboratory results from US6774143B1, “Method for treating cells resistant to antineoplastic agents” (Novartis AG, priority 2003, dated 2004).
pIC50: −log10 of the molar value. Like-named read-outs stand apart in the source and are kept apart here.

Experiments:
1A9 cell line = assay: In vivo hollow fiber assay in nude mice
Protocol: (§1) PVDF hollow fibers (Spectrum, Gardena, Calif.) are soaked in 70% EtOH for 72 hours before use. After this step, all handling of fibers are done under a biological laminar flow hood using aseptic procedures. Individual fibers are flushed with 3 mL of the ice-cold tissue culture media using a syringe equipped with a 20-gauge needle. Next, each fiber is filled with an appropriate cell suspension (1×10^6 cells/mL for the 1A9 and 1A9PTX22 cells, and 0.5×10^6 cells/mL for the LS 174T cells), and both ends of the fiber are sealed with a hot flat needle holder. The entire length of the fiber is then sealed into 1.5 cm microcapsules (further called “hollow fibers”), each containing approximately 15 uL of the appropriate cell suspension. After separation, individual hollow fibers are placed in 6 well plates (6 fibers in 5 mL media per well), and are incubated overnight at 37° C. in the tissue culture incubator.
(§2) Outbred athymic (nu/nu) female mice (“Chrls:Athymic Nude-nu”, Charles River Laboratories, Wilmington, Mass.) are anesthetized with ip injections of Ketamine/Xylazine (150 mg/kg, and 12 mg/kg body weight, respectively). For the subcutaneous implantation an 11-gauge trocar containing one or two hollow fibers is inserted into an incision made with scissors at the nape of the neck of an animal, and fibers are released by retracting the trocar while depressing the plunger. This procedure is repeated until all three hollow fibers are implanted. One wound clip is used to close the skin incision After the surgery each animal receives a single, subcutaneous injection of 0.4 mg/kg butorphenol to relieve any potential pain. Animals recover from the anesthesia on a heating pad, before retuning to their cages.
(§3) One day after the implantation (3 hollow fibers/animal, each hollow fiber containing one cell line: LS 174T, 1A9, and 1A9PTX22) animals are randomly sorted into five groups of six mice/group. The first group is sacrificed; hollow fibers are retrieved, and processed according to a published procedure (Hollingshead M G, et al. Life Sciences 1995, 57(2):131-141), to determine the number of viable cells in each fiber (T0.)
(§4) On day 6 all animals are sacrificed, and hollow fibers are retrieved, and processed according to Hollingshead, M G, (supra) to determine the number of viable cells in each fiber (T—for fibers from animals treated with experimental compounds, C—for fibers from animals treated with corresponding vehicles). Antitumor activity is expressed as % Mean ΔT/Mean ΔC [comparing cell growth for treatment group to vehicle control group, where % Mean ΔT/Mean ΔC=(Mean T—Mean T0/Mean C—Mean T0)×100%]. Regressions are calculated using the formula: (1−Mean T/Mean T0)×100%. Statistical significance of the results is uniformly evaluated using a two-tailed Student's t-test.
(§5) Discodermolide is isolated from the sponge Discodermia dissoluta using the method of Gunasekera SP (supra). Multiple batches of compound of similar purity (all>95% pure, as determined by mass spectrometry, and nuclear magnetic resonance analysis) are used throughout the various studies. For the in vitro cytotoxicity assays all compounds are dissolved in DMSO and are added to the plates with cells to obtain desired concentrations. […] Paclitaxel is purchased from Sigma/Aldrich, (St. Louis, Mo.). For the in vivo hollow fiber assay, solid discodermolide is dissolved in pure ethanol to create a stock solution which is diluted just before dosing with Cremophor EL and D5W to a final concentration of 16.7% Cremophor EL, 8.3% ethanol and 75% D5W. The compound is administered to mice as a single, 15 mg/kg iv injection. Positive control animals receive clinical formulations of paclitaxel (TAXOL) diluted 4-fold with D5W (12.5% Cremophor El, 12.5% ethanol and 75% D5W final concentrations) and administered iv, at 15 mg/kg, once daily for five consecutive days. Vehicle controls are administered according to the corresponding drug schedules.

1A9PTX22 cell line = assay: In vivo hollow fiber assay in nude mice
Protocol: as §1, §2, §3, §4, §5

LS 174T cell line = assay: In vivo hollow fiber assay in nude mice
Protocol: as §1, §2, §3, §4, §5

PTX-22 cells = assay: Antiproliferative assay (MTS); format: cell-based, human
Protocol: A549, a human non-small cell lung carcinoma and MDA-MB-435, a human breast carcinoma, used in this study are obtained from the American Type Culture Collection (ATCC, Rockville, Md., USA). MDA-MB-435 cells are maintained in MEM containing 10% FBS, 1% sodium pyruvate, 1% MEM non-essential amino acids, and 15 mM HEPES (pH=7.4). A549 cells are maintained in RPMI 1640 containing 10% FBS. 1A9, a single-cell clone of the human ovarian carcinoma cell line A2780 and PTX22, the paclitaxel-resistant subline, used in this stdy are obtained from M. Wartman (Novartis Pharmauticals). 1A9 cells and PTX22 cells are maintained in RPMI 1640 supplemented with 10% FBS. PTX22 maintenance media also contained 15 ng/mL paclitaxel and 5 μg/mL verapamil. Drug is removed from the media for 5-7 days before use in an experiment. All maintenance media contained 100 units/mL penicillin and 100 μg/mL streptomycin.
Cell lines are trypsinized and counted using a Coulter counter. Cells were plated in 96 well plates (190 μL/well) at the following densities: 1,000 cells/well for A549 and 3,000 cells/well for MDA-MB-435. The number of cells plated results in cell densities of 75-90% confluence by the time of harvest. Plates are seeded on day 0. On day 1 test compounds are added to triplicate wells in a final volume of 10 μL media. Initial cell density for each cell line is measured on day 1 by adding 10 μL MTS mixture (see below), incubating for 4 h and recording absorbance at 490 nm (A490). Two or three days after test compound addition, 10 μL/well of MTS mixture is added to the test plates and A490 was read 4 h later. A490 values for wells containing cells are corrected for media absorbance, then normalized to initial density readings to determine percent net growth. Percent net growth is calculated as (A490+drug−A490 initial)/(A490—drug—A490 initial). Graphs of percent net growth as a function of compound concentration are used to calculate concentrations resulting in 50% growth inhibition (IC50). MTS mixture is prepared fresh on day of addition to cell plates at a ratio of 10 μL of a 0.92 mg/mL solution of phenazine methosulfate (PMS) to 190 μL of a 2 mg/mL solution of MTS (3-(4,5-dimethylthiazol-2-yl)-5-(3-carboxymethoxyphenyl)-2-(4-sulfophenyl)-2H-tetrazolium, inner salt). PMS and MTS solutions are prepared in buffered saline containing 0.2 g/L KCl, 8.0 g/L NaCl, 0.2 g/L KH2PO4, 1.15 g/L Na2HPO4, 133 mg/L CaCl2.2H2O, 100 mg/L MgCl2.6H2O, (pH=7.35) and stored as foil-wrapped aliquots at −20° C. Test compounds are prepared as stock solutions in DMSO. Test compound dilutions are made in 2% DMSO/cell maintenance media and diluted into assay plates to give 0.1% DMSO final in all wells.

[1] = first experiment, discodermolide single 15 mg/kg iv
[2] = second experiment, discodermolide single 15 mg/kg iv
[3] = first experiment, paclitaxel iv 15 mg/kg once daily for 5 days
[4] = second experiment, paclitaxel iv 15 mg/kg once daily for 5 days

| SMILES | T/C (1A9 cell line; [1]) [%] | T/C (1A9 cell line; [2]) [%] | T/C (1A9PTX22 cell line; [1]) [%] | regression (1A9PTX22 cell line; first study, discodermolide single 15 mg/kg iv, p<0.01) [%] | T/C (1A9PTX22 cell line; [2]) [%] | T/C (LS 174T cell line; [1]) [%] | T/C (LS 174T cell line; [2]) [%] | pIC50 (PTX-22 cells; Homo sapiens, 72 h, read-out: 72 hour IC50, PTX-22 cells, single value given) | pIC50 (PTX-22 cells; Homo sapiens, 72 h, read-out: IC50 cell proliferation, PTX-22 cells, 72 h exposure, two independent experiments) | pIC50 (PTX-22 cells; read-out: IC50 cell proliferation, PTX-22 cells, 72 h exposure, two independent experiments) | T/C (1A9 cell line; [3]) [%] | T/C (1A9 cell line; [4]) [%] | T/C (1A9PTX22 cell line; [3]) [%] | T/C (1A9PTX22 cell line; [4]) [%] | T/C (LS 174T cell line; [3]) [%] | T/C (LS 174T cell line; [4]) [%] | pIC50 (PTX-22 cells; Homo sapiens, 72 h, PTX-22 cells, single value given, read-out: 72 hour IC50) | fold less sensitive, PTX-22 versus 1A9 (PTX-22 cells; from the 72 hour IC50 values) [fold] |
| --- | --- | --- | --- | --- | --- | --- | --- | --- | --- | --- | --- | --- | --- | --- | --- | --- | --- | --- |
| C=C/C=C\[C@H](C)[C@H](OC(N)=O)[C@@H](C)[C@H](O)[C@@H](C)C/C(C)=C\[C@H](C)[C@@H](O)[C@@H](C)/C=C\[C@@H](O)C[C@@H]1OC(=O)[C@H](C)[C@@H](O)[C@H]1C [discodermolide, (+)-Discodermolide] | 8 | 14 | −13 | 13 | 13 | 7 | 13 | 7.52 | 7.64 | 7.43 |  |  |  |  |  |  |  |  |
| CC(=O)O[C@H]1C(=O)[C@@]2(C)[C@H]([C@H](OC(=O)c3ccccc3)[C@]3(O)C[C@H](OC(=O)[C@H](O)[C@@H](NC(=O)c4ccccc4)c4ccccc4)C(C)=C1C3(C)C)[C@]1(OC(C)=O)CO[C@@H]1C[C@@H]2O [paclitaxel, reference compound] |  |  |  |  |  |  |  |  |  |  | −8 | 2 | 79 | 90 | 3 | 8 | 7.10 | 13 |
